One test concerns IFN-I response. The experiment in a line: IFN-I response in senescent and 3X human fibroblasts (RT-qPCR, ELISA, immunoblotting). Type of test: cell-based. From the text:
To obtain replicatively senescent (RS) cells, LF1 cultures were serially propagated until proliferation ceased. At each passage, after reaching 80% confluence cells were trypsinized and diluted 1:4. […] In early passage cultures, the time between passages is constant at approximately 3 days. […] At this point, after reaching 80% confluence, the cells were replated at 1:2 dilution, and this time was designated as the last passage (point A in FIG. 2A). […] Under this experimental regimen, the majority of the cells in the culture enter senescence within a 3-4 weeks window centered roughly around the time of last passage (grey bar in FIG. 2A). At point B (4 weeks), the cultures were trypsinized and replated as described^60 to eliminate a small fraction of persisting contact-inhibited cells. Cultures were again replated at point C (8 weeks).
Oncogene-induced senescence (OIS) was elicited by infecting proliferating LF1 cells with pLenti CMV RasV12 Neo (Addgene plasmid #22259). Generation of lentiviral particles and the infection procedure are described below. At the end of the infection, cells were reseeded at 15-20% confluency and selected with G418 (250 μg/ml) maintained continuously until the end of the experiment Medium was changed every 3 days until the cultures were harvested at the indicated time points. Stress-induced premature senescence (SIPS) was elicited by […] irradiation with 20 Gy given at a rate of 87 cGy/min in one fraction using a cesium-137 gamma source (Nordion Gammacell 40). Cells were 15-20% confluent at the time of irradiation. Medium was changed immediately after irradiation, and at 3-day intervals thereafter. […]
The ABI ViiA 7 instrument (Applied Biosystems) was used for all experiments. qPCR of DNA was performed using the TaqMan system (Applied Biosystems) as described by Coufal et al. (2009).^64 […] of purified genomic DNA was used with the indicated primers (see Table 1). […] Effectiveness of the DNase digestion was assessed using controls that omitted the RT enzyme. […]

In a further test the test system is mouse LINE-1. The experiment in a line: Mouse LINE-1 retrotransposition assay (dual luciferase pYX016 reporter, HeLa cells). Type of test: cell-based. The protocol:
Elvucitabine was obtained by custom synthesis. […] HeLa cervical cancer cells were cultivated at 37° C. in a humidified 5% CO2 incubator in Dulbecco's Modified Eagle's Medium (DMEM)-high glucose, with 4500 mg/L glucose, L-glutamine, sodium pyruvate and sodium bicarbonate (Sigma), supplemented with 10% of heat inactivated fetal bovine serum (Thermo Fisher). Assays were performed as described in Xie et al., 2011^151 with several modifications. The reporter assay was performed in 96 well white Optical bottom plates. 6000 HeLa cells were seeded in each well 24 hours prior transfection and compound treatment. All compounds were resuspended in DMSO. Stock solution concentrations varied from 50 mM to 1.25 mM depending of the solubility of the compound. Serial dilutions (1:3) were prepared in DMSO. Ten different concentrations of each compound were tested in triplicate. Medium containing different concentrations of the compounds were prepared by adding 2 μL of the compound dilution to 1 mL of the culture medium. The final concentration of DMSO in the medium was 0.2%. FuGENE® HD transfection reagent (Promega) was used to transfect the plasmid pYX016 into the cells. The transfection mix was prepared in OpiMEM (Thermo Fisher) using a reagent to DNA ratio of 3.5:1 according to manufacturer's instructions. Culture medium was removed from the cells and discarded. The transfection mix (5 μL) was mixed with the compound containing medium (100 μL/well) and this was added onto the cells of each well. Cells were incubated for 48H at 37° C./5% CO2. Luciferase reporter activity was quantified with the Dual-Luciferase® Reporter Assay System (Promega) according to manufacturer's instructions for multiwell plates with the following modification: Cells were lysed directly on the multiwell plate with 30 μL of the passive lysis buffer (PLB) for 20 min at room temperature, with gentle shaking to ensure complete cell lysis (instead of 20 μL of PLB for 15 min). Firefly and Renilla luciferase signals were measured using a SpectraMax i3x Multi-Mode Microplate Reader. […] Relative L1 activity was calculated as Firefly/Renilla *10,000. […] The experiment was performed twice, independently.

[1] abbreviates: pYX016, 48 H post-transfection, read-out: Mouse L1 activity inhibition IC50, Exp. 1.
Where [2] appears, read: pYX016, 48 H post-transfection, read-out: Mouse L1 activity inhibition IC50, Exp. 2.
Setting [3] is: pYX016, 48 H, n = 2, read-out: Mouse L1 activity inhibition IC50, Average.

These results are taken from patent US12246022B2, “Compositions and methods for treating, preventing or reversing age associated inflammation and disorders” (BROWN UNIVERSITY, priority 2019, dated 2025).

pIC50: −log10 of the molar value. Where two headings read alike, the source gives them in different places.

On to `Nc1nc(=O)n([C@@H]2CS[C@H](CO)O2)cc1F` [Emtricitabine], for which the “interferon gene expression (IFN-α, IFN-β1)” value in the test on IFN-I response (LF1, 50 μM, drug for 1 month from 3 months in senescence) is listed as “decreased the expression of interferons”. The pIC50 is 6.19 with mouse LINE-1 (setting [1]), 6.35 in the test on mouse LINE-1 (setting [2]) and 6.26 in the test on mouse LINE-1 (setting [3]).
Regarding `Nc1ccn([C@@H]2CS[C@H](CO)O2)c(=O)n1` [Lamivudine], in the test with IFN-I response (senescent cells), the “concentration range that optimally inhibited the IFN-I response” value was in the range of 7.5 to 10 µM. Further, the pIC50 is 6.02 in the test with mouse LINE-1 (setting [1]), 6.11 in the test on mouse LINE-1 (setting [2]) and 6.06 with mouse LINE-1 (setting [3]).
